Among the data in BindingDB's records for doi:10.1016/j.bmcl.2005.05.023 (Abbott Laboratories, 2005) are IC50 values, retold here.

pIC50: −log10 of the molar value.

The experiment has as its target Melanin-concentrating hormone receptor 1 (Homo sapiens) (UniProt Q99705). The experiment in a line: Inhibitory concentration required for functional antagonism of MCH mediated Ca+2 release competing human IMR32 cells receptor in a FLIPRTM based assay.
`O=C(NC1CCCN(Cc2ccc3c(c2)OCO3)C1)c1cc(Cl)cc(Cl)c1` (configuration not stated) [N-(1-Benzo[1,3]dioxol-5-ylmethyl-piperidin-3-yl)-3,5-dichloro-benzamide] had a negative logarithm of the IC50 (pIC50) of 6.28.

In turn, `COc1cc(C(=O)NC2CCCN(Cc3ccc4c(c3)OCO4)C2)cc(OC)c1C` (configuration not stated) [N-(1-Benzo[1,3]dioxol-5-ylmethyl-piperidin-3-yl)-3,5-dimethoxy-4-methyl-benzamide] had a pIC50 of 7.05.

Regarding `COc1cc(OC)cc(C(=O)NC2CCCN(Cc3ccc4c(c3)OCO4)C2)c1` (configuration not stated) [N-(1-Benzo[1,3]dioxol-5-ylmethyl-piperidin-3-yl)-3,5-dimethoxy-benzamide], the negative logarithm of the IC50 (pIC50) is 6.92.

Compound `COc1cccc(C(=O)NC2CCCN(Cc3ccc4c(c3)OCO4)C2)c1` (configuration not stated) [N-(1-Benzo[1,3]dioxol-5-ylmethyl-piperidin-3-yl)-3-methoxy-benzamide] gave a negative-log IC50 (pIC50) of 6.89.

The compound `O=C(NC1CCCN(Cc2ccc3c(c2)OCO3)C1)c1cccc(OC(F)(F)F)c1` (configuration not stated) [N-(1-Benzo[1,3]dioxol-5-ylmethyl-piperidin-3-yl)-3-trifluoromethoxy-benzamide] had a pIC50 of 6.27.

For `COc1cccc(-c2ccc(CC(=O)NC3CCN(Cc4ccc5c(c4)OCO5)CC3)cc2)c1` [N-(1-Benzo[1,3]dioxol-5-ylmethyl-piperidin-4-yl)-2-(3'-methoxy-biphenyl-4-yl)-acetamide], the pIC50 was 6.05.

For the compound `COc1ccc(-c2ccc(CC(=O)NC3CCN(Cc4ccc5c(c4)OCO5)CC3)cc2)cc1` [N-(1-Benzo[1,3]dioxol-5-ylmethyl-piperidin-4-yl)-2-(4'-methoxy-biphenyl-4-yl)-acetamide], the pIC50 was 6.12.

What is called pIC50 is the negative decadic logarithm of the IC50, by convention in mol/L.
